# Measured values from patent US5043336A (priority 1990, dated 1991).
# Structures can show the parent of a compound that is named as a salt.
# How the values were obtained:
# [1] = system: CCRF-CEM cell line (human leukemic cells); assay: CCRF-CEM Cytotoxicity Assay (growth inhibition of human leukemic cells, 72 h); assay type: cell-based; conditions: 37° C.; for IC50: Homo sapiens, CCRF-CEM, 72 h, read-out: IC50 (concentration giving 50% growth inhibition)
# Protocol: The CEM cells were grown in RPMI 1640 media (MA Bioproducts) at 37° C. in humidified atmospheric conditions of 95% air and 5% carbon dioxide. The cells were grown in static suspension and maintained in log growth phase at a concentration of 3-7×10^5 cells/ml. The cells were dispersed in wells at a concentration of 4.8×10^4 /well. The drug was dissolved in dimethyl sulfoxide or water and was added at different dilutions to the cluster plates (wells). The cluster plates were incubated at 37° C. for 72 hours. After 72 hours the wells were read using a ZBI Coulter particle counter. Table 2 below gives the results of such testing of several compounds represented by Formula I above. In the table, Column 1 gives the name of the compound and Column 2 gives the IC50 (concentration giving 50% growth inhibition) in μg/ml.
# pKa (66% DMF) = assay type: physicochemical
# [2] = trial test of the water solubility of the salt; assay type: physicochemical; conditions: after adjusting pH to 3.6, before additional 0.5 ml of 2% sulfuric acid
# Protocol: All of the 4-desacetyl VLB C-3 N^2 -(hexahydro-2-methyl-7-oxo-1H-azepin-1-yl)carboxhydrazide prepared from Example 6 was dissolved in 50 ml of ethanol. The initial pH of 4.9 was adjusted to 3.6 with 2% sulfuric acid in ethanol. […] This material was evaporated to dryness in vacuo, which yielded 750 mg of the title compounds.
# P1534(J) leukemia = conditions: transplanted tumors in mice; cited from earlier work
# Gardner lymphosarcoma = conditions: transplanted tumors in mice; cited from earlier work
# [3] = system: Ridgeway osteogenic sarcoma; conditions: transplanted tumors in mice; cited from earlier work
# [4] = system: experimental malignancies; conditions: in vivo; cited from earlier work
# [5] = system: vincristine-resistant leukemias; conditions: in humans; cited from earlier work
# [6] = in humans; cited from earlier work
smiles,measurement,setting,value
"CC[C@]1(O)C[C@@H]2CN(CCc3c([nH]c4ccccc34)[C@@](C(=O)OC)(c3cc4c(cc3OC)N(C)[C@H]3[C@@](O)(C(=O)NN5C(=O)CCC5C)[C@H](O)[C@]5(CC)C=CCN6CC[C@]43[C@@H]65)C2)C1 (single isomer, unassigned) [4-Desacetyl VLB C-3 N^2 -(2-methyl-5-oxo-1-pyrrolidinyl)carb] [4-Desacetyl VLB C-3 N^2-(2-methyl-5-oxo-1-pyrrolidinyl)carboxhydrazide(Isomer 2) sulfate salt]",IC50 (concentration giving 50% growth inhibition),[1]; sulfate salt,0.09 µg/mL
"CC[C@]1(O)C[C@@H]2CN(CCc3c([nH]c4ccccc34)[C@@](C(=O)OC)(c3cc4c(cc3OC)N(C)[C@H]3[C@@](O)(C(=O)NN5C(=O)CCC5C)[C@H](O)[C@]5(CC)C=CCN6CC[C@]43[C@@H]65)C2)C1 (single isomer, unassigned) [4-Desacetyl VLB C-3 N^2-(2-methyl-5-oxo-1-pyrrolidinyl)carboxhydrazide(Isomer 1) sulfate salt]",IC50,[1],0.1 µg/mL
"CC[C@]1(O)C[C@@H]2CN(CCc3c([nH]c4ccccc34)[C@@](C(=O)OC)(c3cc4c(cc3OC)N(C)[C@H]3[C@@](O)(C(=O)N5N=C(C)CCCC5=O)[C@H](O)[C@]5(CC)C=CCN6CC[C@]43[C@@H]65)C2)C1 [4-Desacetyl VLB C-3 N^1-(4,5,6,7-tetrahydro-3-methyl-7-oxo-1H-1,2-diazepin-1-yl)carboxhydrazide sulfate salt]",IC50,[1],0.019 µg/mL
CC[C@]1(O)C[C@@H]2CN(CCc3c([nH]c4ccccc34)[C@@](C(=O)OC)(c3cc4c(cc3OC)N(C)[C@H]3[C@@](O)(C(=O)NNC(C)CCC(=O)O)[C@H](O)[C@]5(CC)C=CCN6CC[C@]43[C@@H]65)C2)C1 (some centres unmarked) [4-Desacetyl VLB C-3 N^2-(3-carboxy-1-methylpropyl)carboxhydrazide],pKa,pKa (66% DMF); first value listed,5.3
same,pKa,pKa (66% DMF); second value listed,6.9
same,pKa,pKa (66% DMF); third value listed,7.9
CC[C@]1(O)C[C@@H]2CN(CCc3c([nH]c4ccccc34)[C@@](C(=O)OC)(c3cc4c(cc3OC)N(C)[C@H]3[C@@](O)(C(=O)NN=C(C)CCCC(=O)O)[C@H](O)[C@]5(CC)C=CCN6CC[C@]43[C@@H]65)C2)C1 [4-Desacetyl VLB C-3 N^2-(4-carboxy-1-methylbutylidene)carboxhydrazide],pKa,pKa (66% DMF); first value listed,5.1
same,pKa,pKa (66% DMF); second value listed,6.6
same,pKa,pKa (66% DMF); third value listed,7.7
CC[C@]1(O)C[C@@H]2CN(CCc3c([nH]c4ccccc34)[C@@](C(=O)OC)(c3cc4c(cc3OC)N(C)[C@H]3[C@@](O)(C(=O)NN=C(C)CCCCC(=O)O)[C@H](O)[C@]5(CC)C=CCN6CC[C@]43[C@@H]65)C2)C1 [4-Desacetyl VLB C-3 N^2-(5-carboxy-1-methylpentylidene)carboxhydrazide],pKa,pKa (66% DMF); first value listed,5.3
same,pKa,pKa (66% DMF); second value listed,7
same,pKa,pKa (66% DMF); third value listed,8.1
CC[C@]1(O)C[C@@H]2CN(CCc3c([nH]c4ccccc34)[C@@](C(=O)OC)(c3cc4c(cc3OC)N(C)[C@H]3[C@@](O)(C(=O)NN5C(=O)CCCCC5C)[C@H](O)[C@]5(CC)C=CCN6CC[C@]43[C@@H]65)C2)C1 (some centres unmarked) [4-Desacetyl VLB C-3 N^2-(hexahydro-2-methyl-7-oxo-1H-azepin-1-yl)carboxhydrazide sulfate salt],water solubility of the salt,[2],not completely soluble
same,IC50,[1],0.0056 µg/mL
CC[C@]1(O)C[C@@H]2CN(CCc3c([nH]c4ccccc34)[C@@](C(=O)OC)(c3cc4c(cc3OC)N(C)[C@H]3[C@@](O)(C(=O)NN)[C@H](O)[C@]5(CC)C=CCN6CC[C@]43[C@@H]65)C2)C1 [4-Desacetyl VLB C-3 carboxhydrazide],activity against P1534(J) leukemia,P1534(J) leukemia,active
same,activity against Gardner lymphosarcoma,Gardner lymphosarcoma,active
same,activity against Ridgeway osteogenic sarcoma,[3],active
CCC1(O)CN2CCc3c([nH]c4ccccc34)C(C(=O)OC)(c3cc4c(cc3OC)N(C)C3C(O)(C(=O)OC)CC5(CC)C=CCN6CCC43C65)CC(C2)C1O (centres unmarked) [4-desacetoxy-3'-hydroxyvinblastine],activity in the treatment of experimental malignancies in animals,[4],active
CC[C@]1(O)C[C@@H]2CN(CCc3c([nH]c4ccccc34)[C@@](C(=O)OC)(c3cc4c(cc3OC)N(C)[C@@H]3[C@]45CCN4CC=C[C@@](CC)(C[C@]3(O)C(=O)OC)[C@H]45)C2)C1 [4-desacetoxyvinblastine],activity in the treatment of experimental malignancies in animals,[4],active
"CC[C@]1(O)C[C@@H]2CN(CCc3c([nH]c4ccccc34)[C@@](C(=O)OC)(c3cc4c(cc3OC)N(C)[C@H]3[C@@](O)(C(=O)OC)[C@H](OC(C)=O)[C@]5(CC)C=CCN6CC[C@]43[C@@H]65)C2)C1 [VLB, vincaleukoblastine]",activity in the treatment of experimental malignancies in animals,[4],active
"CCC1CC2CN(CCc3c([nH]c4ccccc34)C(C(=O)OC)(c3cc4c(cc3OC)N(C)C3C(O)(C(=O)OC)C(OC(C)=O)C5(CC)C=CCN6CCC43C65)C2)C1 (centres unmarked) [deoxy VLB ""A""]",activity in the treatment of experimental malignancies in animals,[4],active
CCC1(O)CN2CCc3c([nH]c4ccccc34)C(C(=O)OC)(c3cc4c(cc3OC)N(C)C3C(O)(C(=O)OC)C(OC(C)=O)C5(CC)C=CCN6CCC43C65)CC(O)(C2)C1 (centres unmarked) [leurocolombine],activity in the treatment of experimental malignancies in animals,[4],active
CC[C@]12CN3CCc4c([nH]c5ccccc45)[C@@](C(=O)OC)(c4cc5c(cc4OC)N(C=O)[C@H]4[C@@](O)(C(=O)OC)[C@H](OC(C)=O)[C@]6(CC)C=CCN7CC[C@]54[C@@H]76)C[C@@H](C3)[C@H]1O2 [leuroformine],activity in the treatment of experimental malignancies in animals,[4],active
CC[C@@]1(O)C[C@@H]2CN(CCc3c([nH]c4ccccc34)[C@@](C(=O)OC)(c3cc4c(cc3OC)N(C)[C@H]3[C@@](O)(C(=O)OC)[C@H](OC(C)=O)[C@]5(CC)C=CCN6CC[C@]43[C@@H]65)C2)C1 [leurosidine],activity in the treatment of experimental malignancies in animals,[4],active
CC[C@]12CN3CCc4c([nH]c5ccccc45)[C@@](C(=O)OC)(c4cc5c(cc4OC)N(C)[C@H]4[C@@](O)(C(=O)OC)[C@H](OC(C)=O)[C@]6(CC)C=CCN7CC[C@]54[C@@H]76)C[C@H](C3)[C@H]1O2 [leurosine],activity in the treatment of experimental malignancies in animals,[4],active
CCC1(O)CN2CCc3c([nH]c4ccccc34)C(C(=O)OC)(c3cc4c(cc3OC)N(C)C3C(O)(C(=O)OC)C(OC(C)=O)C5(CC)C=CCN6CCC43C65)CC(C2)C1O (centres unmarked) [vincadioline],activity in the treatment of experimental malignancies in animals,[4],active
CC[C@]1(O)C[C@H]2CN(CCc3c([nH]c4ccccc34)[C@@](C(=O)OC)(c3cc4c(cc3OC)N(C=O)[C@H]3[C@@](O)(C(=O)OC)[C@H](OC(C)=O)[C@]5(CC)C=CCN6CC[C@]43[C@@H]65)C2)C1 [vincristine],activity in the treatment of experimental malignancies in animals,[4],active
"CC[C@]1(O)C[C@@H]2CN(CCc3c([nH]c4ccccc34)[C@@](C(=O)OC)(c3cc4c(cc3OC)N(C)[C@H]3[C@@](O)(C(N)=O)[C@H](O)[C@]5(CC)C=CCN6CC[C@]43[C@@H]65)C2)C1 [vindesine, 4-desacetyl VLB C-3 carboxamide]",effectiveness against vincristine-resistant leukemias,[5],apparently effective
same,neurotoxicity compared with vincristine,[6],less neurotoxicity than does vincristine
